Data as given in ChEMBL document CHEMBL5550212, “Structural and Physicochemical Features of Oral PROTACs” (J Med Chem, 2024).

What was measured:
[1] = Clearance in C57BL/6 mouse at 1 mg/kg, po measured upto 24 hrs by LC-MS/MS analysis; format: ADME, organism-based; conditions: in vivo
[2] = Oral bioavailability in C57BL/6 mouse at 1 mg/kg measured upto 24 hrs by LC-MS/MS analysis; format: ADME, organism-based; conditions: in vivo
[3] = Chromatographic hydrophobicity index, logD of the compound; format: physicochemical
[4] = Oral bioavailability in Beagle dog at 1 mg/kg measured upto 24 hrs by LC-MS/MS analysis; format: ADME, organism-based, Canis lupus familiaris; conditions: in vivo
[5] = Volume of distribution at steady state in C57BL/6 mouse at 1 mg/kg, po measured upto 24 hrs by LC-MS/MS analysis; format: ADME, organism-based; conditions: in vivo
[6] = Half-life in Beagle dog at 1 mg/kg, po measured upto 24 hrs by LC-MS/MS analysis; format: ADME, organism-based, Canis lupus familiaris; conditions: in vivo
[7] = Half-life in Han Wistar rat at 1 mg/kg, po measured upto 24 hrs by LC-MS/MS analysis; format: ADME, organism-based; conditions: in vivo
[8] = Volume of distribution at steady state in Beagle dog at 1 mg/kg, po measured upto 24 hrs by LC-MS/MS analysis; format: ADME, organism-based, Canis lupus familiaris; conditions: in vivo
[9] = Clearance in Beagle dog at 1 mg/kg, po measured upto 24 hrs by LC-MS/MS analysis; format: ADME, organism-based, Canis lupus familiaris; conditions: in vivo
[10] = Volume of distribution at steady state in Han Wistar rat at 1 mg/kg, po measured upto 24 hrs by LC-MS/MS analysis; format: ADME, organism-based; conditions: in vivo
[11] = Half-life in C57BL/6 mouse at 1 mg/kg, po measured upto 24 hrs by LC-MS/MS analysis; format: ADME, organism-based; conditions: in vivo
[12] = Clearance in Han Wistar rat at 1 mg/kg, po measured upto 24 hrs by LC-MS/MS analysis; format: ADME, organism-based; conditions: in vivo
[13] = Oral bioavailability in Han Wistar rat at 1 mg/kg measured upto 24 hrs by LC-MS/MS analysis; format: ADME, organism-based; conditions: in vivo
[14] = Lipophilicity, logD of the compound at pH 7.4 by shake-flask assay; format: physicochemical; conditions: buffer
[15] = target: T1, Androgen receptor (Homo sapiens, UniProt P10275); experiment: Induction of AR degradation in human VCaP cells; format: cell-based
T1 sequence (P10275 whole entry): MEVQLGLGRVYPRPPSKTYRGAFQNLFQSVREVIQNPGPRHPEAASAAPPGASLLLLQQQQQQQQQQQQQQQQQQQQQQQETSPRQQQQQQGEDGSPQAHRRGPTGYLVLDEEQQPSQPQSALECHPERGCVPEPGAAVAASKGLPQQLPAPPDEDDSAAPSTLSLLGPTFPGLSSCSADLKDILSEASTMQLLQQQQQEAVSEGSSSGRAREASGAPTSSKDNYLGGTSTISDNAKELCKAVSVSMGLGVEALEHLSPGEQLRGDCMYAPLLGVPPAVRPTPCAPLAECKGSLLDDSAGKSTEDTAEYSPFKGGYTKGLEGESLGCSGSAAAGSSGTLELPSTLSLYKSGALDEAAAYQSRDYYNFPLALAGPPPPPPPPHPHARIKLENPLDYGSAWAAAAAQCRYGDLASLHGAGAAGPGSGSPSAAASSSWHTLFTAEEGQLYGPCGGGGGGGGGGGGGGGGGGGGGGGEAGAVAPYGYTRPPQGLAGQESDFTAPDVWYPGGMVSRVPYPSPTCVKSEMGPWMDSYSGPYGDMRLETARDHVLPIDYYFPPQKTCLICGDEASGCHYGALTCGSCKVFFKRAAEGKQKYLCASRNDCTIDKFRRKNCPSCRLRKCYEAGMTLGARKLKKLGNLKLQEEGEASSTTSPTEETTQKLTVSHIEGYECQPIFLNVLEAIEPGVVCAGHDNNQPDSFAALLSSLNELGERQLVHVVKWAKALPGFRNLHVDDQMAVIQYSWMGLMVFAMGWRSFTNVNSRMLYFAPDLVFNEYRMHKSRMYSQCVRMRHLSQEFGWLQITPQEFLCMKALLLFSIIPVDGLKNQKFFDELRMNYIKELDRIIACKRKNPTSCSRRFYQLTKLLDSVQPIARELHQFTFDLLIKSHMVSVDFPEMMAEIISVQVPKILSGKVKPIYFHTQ

[16] = target: T2, Androgen receptor (Homo sapiens) (UniProt P10275); experiment: Induction of AR degradation in human VCaP cells relative to control; format: cell-based
T2 sequence (whole entry): T1 sequence (P10275 whole entry)

[17] = target: T3, Estrogen receptor (Homo sapiens, UniProt P03372); experiment: Induction of ERalpha degradation in human MCF7 cells; format: cell-based
T3 sequence (P03372 whole entry): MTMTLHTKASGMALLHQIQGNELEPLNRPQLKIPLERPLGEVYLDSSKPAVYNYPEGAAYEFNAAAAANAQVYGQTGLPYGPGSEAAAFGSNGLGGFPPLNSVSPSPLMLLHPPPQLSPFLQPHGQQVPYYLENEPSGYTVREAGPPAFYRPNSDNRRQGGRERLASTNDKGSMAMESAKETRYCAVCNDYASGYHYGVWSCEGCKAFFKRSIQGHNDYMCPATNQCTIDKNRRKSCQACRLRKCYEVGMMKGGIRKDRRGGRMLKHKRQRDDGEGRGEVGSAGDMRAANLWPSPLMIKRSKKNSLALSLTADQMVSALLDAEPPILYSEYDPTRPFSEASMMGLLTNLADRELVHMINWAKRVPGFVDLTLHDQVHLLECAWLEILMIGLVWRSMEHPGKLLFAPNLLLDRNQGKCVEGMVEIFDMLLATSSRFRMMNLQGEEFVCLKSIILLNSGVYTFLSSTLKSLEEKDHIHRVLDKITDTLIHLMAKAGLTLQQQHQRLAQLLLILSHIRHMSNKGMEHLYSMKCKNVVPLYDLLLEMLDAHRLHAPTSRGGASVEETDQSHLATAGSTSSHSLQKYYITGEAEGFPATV

[18] = target: T4, Estrogen receptor (Homo sapiens) (UniProt P03372); experiment: Induction of ERalpha degradation in human MCF7 cells relative to control; format: cell-based
T4 sequence (whole entry): T3 sequence (P03372 whole entry)

[19] = Dissociation constant, pKa of the compound; format: physicochemical
[20] = target: T1, Androgen receptor; experiment: Induction of AR degradation in human LNCaP cells; format: cell-based
[21] = target: T2, Androgen receptor (Homo sapiens); experiment: Induction of AR degradation in human LNCaP cells relative to control; format: cell-based
[22] = Drug uptake in mouse plasma at 60 mg/kg, po; format: ADME, organism-based; conditions: in vivo
[23] = Drug uptake in mouse plasma at 30 mg/kg, po; format: ADME, organism-based; conditions: in vivo

C[C@@H]1Cc2c(n(C)c3ccccc23)[C@@H](c2cnc(N3CCC(CCN4CCN(c5ccc6c(c5)CN(C5CCC(=O)NC5=O)C6=O)CC4)CC3)nc2)N1CC(C)(C)F (mixture of isomers)
CL/F [1]: 5.3 mL/min/kg
bioavailability [2]: 38%
CHI [3]: 7

N#Cc1ccc(O[C@H]2CC[C@H](NC(=O)c3ccc(N4CCC(CN5CCN(c6cc7c(cc6F)C(=O)N(C6CCC(=O)NC6=O)C7=O)CC5)CC4)nn3)CC2)cc1Cl (stereo not given in full) [BAVDEGALUTAMIDE]
CL/F [1]: 3.9 mL/min/kg
bioavailability [4]: 14%
bioavailability [2]: 65%
Vdss [5]: 3.8 L/kg
half-life [6]: 1920 min
half-life [7]: 558 min
Vdss [8]: 13 L/kg
CL/F [9]: 4.7 mL/min/kg
Vdss [10]: 7.8 L/kg
half-life [11]: 780 min
CL/F [12]: 9 mL/min/kg
CHI [3]: 5.1
bioavailability [13]: 51%
logD [14]: 4.8

COc1cc(O[C@H]2C(C)(C)[C@H](NC(=O)c3ccc(N4CCC(CN5CCN(c6ccc(C(=O)N[C@@H]7CCC(=O)NC7=O)c(F)c6)CC5)CC4)cc3)C2(C)C)ccc1C#N
DC50 [15]: 1 nM
Emax [16]: < 50%

C[C@@H]1Cc2c([nH]c3ccccc23)[C@@H](c2cnc(N3CCC(CNC4CCN(c5ccc6c(c5)CN(C5CCC(=O)NC5=O)C6=O)CC4)CC3)nc2)N1CC(C)(C)F (stereo not given in full)
CL/F [1]: 26.6 mL/min/kg
bioavailability [2]: < 1%
IC50 [17]: ≤ 1 nM
CHI [3]: 4.7
Emax [18]: > 90%

C[C@@H]1Cc2c([nH]c3ccccc23)[C@@H](c2cnc(N3CCC(CCN4CCN(c5ccc6c(c5)CN(C5CCC(=O)NC5=O)C6=O)CC4)CC3)nc2)N1CC(C)(C)F (stereo not given in full)
CL/F [1]: 5 mL/min/kg
bioavailability [2]: 15%
IC50 [17]: ≤ 1 nM
CHI [3]: 6.1
Emax [18]: > 90%

Cn1c(=O)n(C2CCC(=O)NC2=O)c2cccc(C#CCOC3CCN(C[C@H]4CC[C@H](n5cc(NC(=O)c6cnn7ccc(N8C[C@H]9C[C@@H]8CO9)nc67)c(C(F)F)n5)CC4)CC3)c21 (stereo not given in full) [KT-474]
CL/F [1]: 17 mL/min/kg
bioavailability [4]: 51%
bioavailability [2]: 24%
Vdss [5]: 2.7 L/kg
Vdss [8]: 6.7 L/kg
CL/F [9]: 16 mL/min/kg
Vdss [10]: 7.7 L/kg
CL/F [12]: 51 mL/min/kg
CHI [3]: 2.3
bioavailability [13]: 7%
pKa [19]: 8.5
logD [14]: 3.6

O=C1CC[C@H](N2Cc3cc(N4CCN(CC5CCN(c6ccc([C@@H]7c8ccc(O)cc8CC[C@@H]7c7ccccc7)cc6)CC5)CC4)ccc3C2=O)C(=O)N1 [VEPDEGESTRANT]
CL/F [1]: 35 mL/min/kg
bioavailability [4]: 5%
bioavailability [2]: 59%
half-life [6]: 660 min
half-life [7]: 900 min
CL/F [9]: 3 mL/min/kg
half-life [11]: 372 min
CL/F [12]: 28 mL/min/kg
CHI [3]: 5.3
bioavailability [13]: 24%
logD [14]: 4.6

C[C@@H]1Cc2c([nH]c3ccccc23)[C@@H](c2cnc(N3CCC(NC4CCN(c5ccc6c(c5)CN(C5CCC(=O)NC5=O)C6=O)CC4)CC3)nc2)N1CC(C)(C)F (stereo not given in full)
CL/F [1]: 51.4 mL/min/kg
bioavailability [2]: < 1%
IC50 [17]: ≤ 1 nM
CHI [3]: 4.6
Emax [18]: > 90%

Cc1ncsc1-c1ccc([C@H](C)NC(=O)[C@@H]2C[C@@H](O)CN2C(=O)[C@@H](NC(=O)COCCCCCNc2ccc(C(=O)N[C@H]3C(C)(C)[C@H](Oc4ccc(C#N)c(Cl)c4)C3(C)C)cc2)C(C)(C)C)cc1
CL/F [1]: 4.7 mL/min/kg
bioavailability [2]: 2%
DC50 [20]: 6 nM
CHI [3]: 5.9
Emax [21]: 96%

Cc1ncsc1-c1ccc(CNC(=O)[C@@H]2C[C@@H](O)CN2C(=O)[C@@H](NC(=O)CCCCCCCCCCNC(=O)O[C@H]2C[C@@H](C)C=C3C=C[C@H](C)[C@H](CC[C@@H]4C[C@@H](O)CC(=O)O4)[C@H]32)C(C)(C)C)cc1
Drug uptake [22]: Active

Cc1ncsc1-c1ccc([C@H](CC[C@H](C)CCN2CCC(c3ccc4c(c3)n3c5cccc(Br)c5c(=O)nc3n4C3CCCC3)CC2)NC(=O)[C@@H]2C[C@@H](O)CN2C(=O)[C@@H](NC(=O)C2(F)CC2)C(C)(C)C)cc1
Drug uptake [23]: Active

C[C@@H]1Cc2c([nH]c3ccccc23)[C@@H](c2cnc(N3CCC(CN4CCN(c5ccc6c(c5)CN(C5CCC(=O)NC5=O)C6=O)CC4)CC3)nc2)N1CC(C)(C)F (stereo not given in full)
CL/F [1]: 6.1 mL/min/kg
bioavailability [2]: 45%
IC50 [17]: ≤ 1 nM
CHI [3]: 6.1
Emax [18]: > 90%

COc1cc(O[C@H]2C(C)(C)[C@H](NC(=O)c3ccc(N4CCC(CN5CCN(c6ccc(C(=O)N[C@H]7CCC(=O)NC7=O)c(F)c6)CC5)CC4)cc3)C2(C)C)ccc1C#N [LUXDEGALUTAMIDE]
CL/F [1]: 4.2 mL/min/kg
bioavailability [4]: 33%
bioavailability [2]: 58%
Vdss [5]: 2.3 L/kg
DC50 [15]: < 1 nM
half-life [6]: 1860 min
half-life [7]: 444 min
Emax [16]: > 70%
Vdss [8]: 15 L/kg
CL/F [9]: 6.4 mL/min/kg
Vdss [10]: 9.1 L/kg
half-life [11]: 408 min
CL/F [12]: 16 mL/min/kg
CHI [3]: 5
bioavailability [13]: 38%
logD [14]: 4.7

C[C@@H]1Cc2c([nH]c3ccccc23)[C@@H](c2cnc(N3CCC(CN(C)C4CCN(c5ccc6c(c5)CN(C5CCC(=O)NC5=O)C6=O)CC4)CC3)nc2)N1CC(C)(C)F (stereo not given in full)
CL/F [1]: 19.3 mL/min/kg
bioavailability [2]: 12%
IC50 [17]: ≤ 1 nM
CHI [3]: 5.6
Emax [18]: > 90%
